Consider three compounds from patent US20180116978A1, “FORMULATIONS OF TOCOTRIENOL QUINONES FOR THE TREATMENT OF OPHTHALMIC DISEASES” (priority 2009, published 2018).

Data set [1] can be described thus: Animal study of alpha-tocotrienol quinone administration, pharmacokinetics in fasted dogs. The format is in vivo. The following applies: 10 mg/kg.
The conditions of data set [2]: rat, in vivo. From the text:
The starting dose can be estimated based on the United States Food and Drug Administration guidelines titled “Estimating the Maximum Safe Starting Dose in Initial Clinical Trials for Therapeutics in Adult Healthy Volunteers” (July 2005) as well as the International Conference on Harmonisation of Technical Requirements for Registration of Pharmaceuticals for Human Use (ICH) guidelines titled “Guidance on Non-clinical Safety Studies for the Conduct of Human Clinical Trials and Marketing Authorization for Pharmaceuticals” (July 2008). Per ICH guidelines, predicted exposures from the starting dose should not exceed 1/50th the NOAEL (No-Adverse-Observed-Effect-Level) in the more sensitive species on a mg/m^2 basis. Following a single oral dose of alpha-tocotrienol quinone, the NOAEL was established to be 500 mg/kg for the female rat, i.e. 3,000 mg/m^2. This dosage would be equivalent to 81 mg/kg in an adult human. 1/50th of 81 mg/kg is 1.6 mg/kg, i.e. 110 mg for a 70 kg adult, or 16 mg for a 10 kg child. This dose can be administered once, twice, or three times daily.

For data set [3] the following is noted: rat, in vivo. The source holds these as a separate data set.
The conditions of data set [4]: rat, cited from earlier work.

Where two headings read alike, the source gives them in different places.

In the case of `CC(C)=CCC/C(C)=C/CC/C(C)=C/CCC(C)(O)CCC1=C(C)C(=O)C(C)=C(C)C1=O` (stereo not drawn) [Alpha-tocotrienol quinone, Alpha-Tocotrienol quinone], in data set [1], the Cmax (usually the peak of the concentration-time curve) stood at 442 ng/mL; the Tmax (as a rule, the time from dosing to the highest level) turned out to be 2.8 h; the bioavailability (in general, dose-corrected exposure relative to a reference, in per cent) is given as roughly 16%; the t1/2 amounted to 7.6 h. For the same compound, in data set [2], the “NOAEL equivalent dosage in an adult human” value worked out at 81 mg/kg and the “safe when given acutely up to” value is “up to 2000 mg/kg”. Besides, the “increase in AUCs” value in data set [3] is given as 1.5:2.8:4.0:6.7. In data set [3] (10 mg/kg), the Cmax was determined as 931 ng/mL, the Tmax is 3.5 h, the bioavailability is roughly 90% and the t1/2 is listed as 3.5 h.

For `Cc1c(C)c2c(c(C)c1O)CC[C@@](C)(CCC[C@H](C)CCC[C@H](C)CCCC(C)C)O2` [alpha-tocopherol], in data set [4] (in vivo), the “concentration in ocular tissues” value is given as “no significant increase”.

In the case of alpha-tocotrienol, in data set [4] (topical ophthalmic administration), the “concentration in ocular tissues” value was “increased markedly in every tissue”.
